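Following 48 hours of exposure in 96-well plates, responses at five concentrations were used to interpolate endpoints linearly. The concentration for 50% growth inhibition is given as GI50.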 Activity calls are given as the source filed them. Cut-off read from the data, not from the text of the source: active = GI50 up to about 1.1 µM and inactive = higher.
Key:
Assay in all cases: growth of human tumour cells (NCI), 48 h
A498 = tested on: A498
A549 = tested on: A549
ACHN = tested on: ACHN
BT-549 = tested on: BT-549
CAKI-1 = tested on: CAKI-1
COLO 205 = tested on: COLO 205
DU-145 = tested on: DU-145
EKVX = tested on: EKVX
HCC 2998 = tested on: HCC 2998
HCT-116 = tested on: HCT-116
HCT-15 = tested on: HCT-15
HOP-62 = tested on: HOP-62
HOP-92 = tested on: HOP-92
HT-29 = tested on: HT-29
Hs-578T = tested on: Hs-578T
IGROV-1 = tested on: IGROV-1
KM12 = tested on: KM12
LOX IMVI = tested on: LOX IMVI
M14 = tested on: M14
MCF7 = tested on: MCF7
MDA-MB-231 = tested on: MDA-MB-231
MDA-MB-435 = tested on: MDA-MB-435
MDA-N = tested on: MDA-N
MOLT-4 = tested on: MOLT-4
NCI-H226 = tested on: NCI-H226
NCI-H23 = tested on: NCI-H23
NCI-H460 = tested on: NCI-H460
NCI-H522 = tested on: NCI-H522
NCI/ADR-RES = tested on: NCI/ADR-RES
OVCAR-3 = tested on: OVCAR-3
OVCAR-4 = tested on: OVCAR-4
OVCAR-5 = tested on: OVCAR-5
OVCAR-8 = tested on: OVCAR-8
PC-3 = tested on: PC-3
RPMI-8226 = tested on: RPMI-8226
RXF 393 = tested on: RXF 393
SF-268 = tested on: SF-268
SF-295 = tested on: SF-295
SF-539 = tested on: SF-539
SK-MEL-28 = tested on: SK-MEL-28
SK-MEL-2 = tested on: SK-MEL-2
SK-MEL-5 = tested on: SK-MEL-5
SK-OV-3 = tested on: SK-OV-3
SN12C = tested on: SN12C
SNB-19 = tested on: SNB-19
SNB-75 = tested on: SNB-75
SW-620 = tested on: SW-620
T47D = tested on: T47D
TK-10 = tested on: TK-10
U-251 = tested on: U-251
UACC-257 = tested on: UACC-257
UACC-62 = tested on: UACC-62
UO-31 = tested on: UO-31
786-0 = tested on: 786-0
CCRF-CEM = tested on: CCRF-CEM
HL-60 = tested on: HL-60
K562 = tested on: K562
Malme-3M = tested on: Malme-3M
SR = tested on: SR

Structure (SMILES): C1CSCCSCCSCCSC1
- GI50 (A498): > 100 µM (inactive)
- GI50 (A549): > 100 µM (inactive)
- GI50 (ACHN): > 100 µM (inactive)
- GI50 (BT-549): > 100 µM (inactive)
- GI50 (CAKI-1): > 100 µM (inactive)
- GI50 (COLO 205): > 100 µM (inactive)
- GI50 (DU-145): > 100 µM (inactive)
- GI50 (EKVX): > 100 µM (inactive)
- GI50 (HCC 2998): > 100 µM (inactive)
- GI50 (HCT-116): > 100 µM (inactive)
- GI50 (HCT-15): > 100 µM
- GI50 (HOP-62): > 100 µM (inactive)
- GI50 (HOP-92): > 100 µM (inactive)
- GI50 (HT-29): > 100 µM (inactive)
- GI50 (Hs-578T): > 100 µM (inactive)
- GI50 (IGROV-1): > 100 µM (inactive)
- GI50 (KM12): > 100 µM (inactive)
- GI50 (LOX IMVI): > 100 µM (inactive)
- GI50 (M14): > 100 µM (inactive)
- GI50 (MCF7): > 100 µM (inactive)
- GI50 (MDA-MB-231): > 100 µM (inactive)
- GI50 (MDA-MB-435): > 100 µM (inactive)
- GI50 (MDA-N): > 100 µM (inactive)
- GI50 (MOLT-4): > 100 µM (inactive)
- GI50 (NCI-H226): > 100 µM (inactive)
- GI50 (NCI-H23): > 100 µM (inactive)
- GI50 (NCI-H460): > 100 µM (inactive)
- GI50 (NCI-H522): > 100 µM (inactive)
- GI50 (NCI/ADR-RES): > 100 µM (inactive)
- GI50 (OVCAR-3): > 100 µM (inactive)
- GI50 (OVCAR-4): > 100 µM (inactive)
- GI50 (OVCAR-5): > 100 µM (inactive)
- GI50 (OVCAR-8): > 100 µM (inactive)
- GI50 (PC-3): > 100 µM (inactive)
- GI50 (RPMI-8226): > 100 µM (inactive)
- GI50 (RXF 393): > 100 µM (inactive)
- GI50 (SF-268): > 100 µM (inactive)
- GI50 (SF-295): > 100 µM (inactive)
- GI50 (SF-539): > 100 µM (inactive)
- GI50 (SK-MEL-28): > 100 µM (inactive)
- GI50 (SK-MEL-2): > 100 µM (inactive)
- GI50 (SK-MEL-5): > 100 µM (inactive)
- GI50 (SK-OV-3): > 100 µM (inactive)
- GI50 (SN12C): > 100 µM (inactive)
- GI50 (SNB-19): > 100 µM (inactive)
- GI50 (SNB-75): > 100 µM (inactive)
- GI50 (SW-620): > 100 µM (inactive)
- GI50 (T47D): > 100 µM (inactive)
- GI50 (TK-10): > 100 µM (inactive)
- GI50 (U-251): > 100 µM (inactive)
- GI50 (UACC-257): > 100 µM (inactive)
- GI50 (UACC-62): > 100 µM (inactive)
- GI50 (UO-31): > 100 µM (inactive)

Structure (SMILES): COc1cc(-c2cc(=O)c3c(OC)c(OC)c(OC)c(OC)c3o2)c(OC)c(OC)c1OC
- GI50 (786-0): 47.5 µM (inactive)
- GI50 (A549): 48.1 µM (inactive)
- GI50 (ACHN): 22 µM (inactive)
- GI50 (BT-549): 17.6 µM (inactive)
- GI50 (CAKI-1): 27.5 µM (inactive)
- GI50 (CCRF-CEM): 50.7 µM (inactive)
- GI50 (COLO 205): 45.8 µM (inactive)
- GI50 (DU-145): 43.4 µM (inactive)
- GI50 (EKVX): 66.8 µM (inactive)
- GI50 (HCC 2998): 49.3 µM (inactive)
- GI50 (HCT-116): 30.7 µM (inactive)
- GI50 (HCT-15): 30.3 µM
- GI50 (HL-60): 46.7 µM (inactive)
- GI50 (HOP-62): > 100 µM (inactive)
- GI50 (HOP-92): 13.9 µM (inactive)
- GI50 (HT-29): 31 µM (inactive)
- GI50 (Hs-578T): 19.8 µM (inactive)
- GI50 (IGROV-1): 12.3 µM (inactive)
- GI50 (K562): 60.3 µM (inactive)
- GI50 (KM12): 21.9 µM (inactive)
- GI50 (LOX IMVI): 32.1 µM (inactive)
- GI50 (M14): 51.5 µM (inactive)
- GI50 (MCF7): 47.2 µM (inactive)
- GI50 (MDA-MB-231): 24.3 µM (inactive)
- GI50 (MDA-MB-435): 45.8 µM (inactive)
- GI50 (MDA-N): 41.4 µM (inactive)
- GI50 (MOLT-4): 72.6 µM (inactive)
- GI50 (Malme-3M): 23.8 µM (inactive)
- GI50 (NCI-H226): 38.1 µM (inactive)
- GI50 (NCI-H460): 36.1 µM (inactive)
- GI50 (NCI-H522): 20.7 µM (inactive)
- GI50 (NCI/ADR-RES): 17.9 µM (inactive)
- GI50 (OVCAR-4): 30.7 µM (inactive)
- GI50 (OVCAR-5): > 100 µM (inactive)
- GI50 (OVCAR-8): 28.6 µM (inactive)
- GI50 (PC-3): 14.3 µM (inactive)
- GI50 (RPMI-8226): 24.5 µM (inactive)
- GI50 (RXF 393): 28.6 µM (inactive)
- GI50 (SF-268): 63.1 µM (inactive)
- GI50 (SF-295): 43.8 µM (inactive)
- GI50 (SF-539): 47.8 µM (inactive)
- GI50 (SK-MEL-28): 42.5 µM (inactive)
- GI50 (SK-MEL-2): 20.5 µM (inactive)
- GI50 (SK-MEL-5): 36.1 µM (inactive)
- GI50 (SK-OV-3): 76.7 µM (inactive)
- GI50 (SN12C): 35.2 µM (inactive)
- GI50 (SNB-19): 98.6 µM (inactive)
- GI50 (SNB-75): 16.4 µM (inactive)
- GI50 (SR): 27.4 µM (inactive)
- GI50 (SW-620): 45.3 µM (inactive)
- GI50 (T47D): 16.2 µM (inactive)
- GI50 (TK-10): 61.7 µM (inactive)
- GI50 (U-251): 48.1 µM (inactive)
- GI50 (UACC-257): 42.3 µM (inactive)
- GI50 (UACC-62): 21.2 µM (inactive)
- GI50 (UO-31): 21.6 µM (inactive)
